Like-named read-outs stand apart in the source and are kept apart here.
Key:
Format in all cases: cell-based
[1] = test system: GP5d cells; assay: GP5d cell proliferation assay (colorectal cancer, G12D), 5 days; details: Homo sapiens, 120 h
Description: GP5d Cell Proliferation Assay (Colorectal Cancer, G12D)
(§1) GP5d cells (ECACC 95090715) are dispensed into white bottom opaque 96 well plates at a density of 5000 cells per well in 100 μL DMEM (BioWhittaker, Cat #BE12-605F) supplemented with 10% FCS. […] Compounds (10 mM stock in DMSO) are added at logarithmic dose series using the HP Digital Dispenser D300 (Tecan), normalizing for added DMSO. For the TO time point measurement, untreated cells are analysed at the time of compound addition. Plates are incubated for 5 days, and cell viability is measured using CellTiter-Glo luminescent cell viability reagent (Promega, Cat. No G7570). Viability (stated as percent of control) is defined as relative luminescence units RLU of each well divided by the RLU of cells in DMSO controls. IC50 values were computed from relative viability values using a four parametric logistic model.

[2] = target: T1, KRAS(G12D) (Homo sapiens, UniProt P01116, G12D); assay: HiBit degradation assay in GP5d-HiBit-KRAS(G12D) cells (18 h; DC50, Dmax)
T1 construct: introduced immediately downstream of the initiating Methionine codon of the endogenous KRAS locus; host or cells: GP5d-HiBit-KRAS(G12D), a CRISPR knock-in at the endogenous locus
Description: A HiBit protein detection tag (amino acid sequence […], Seq ID No 1) was introduced immediately downstream of the initiating Methionine codon of the endogenous KRAS locus (Ensembl gene ID ENSG00000133703.7) of GP5d cells (ECACC Cat. No. 95090715) by CRISPR-based genome engineering using a KRAS(G12D) mutant donor construct encoding the HiBit tag. […] Correct modification of the KRAS locus was assessed by PCR-based genotyping and Sanger sequencing of the isolated PCR products. The resulting cell line is referred to as GP5d-HiBit-KRAS(G12D).
To assess PROTAC-mediated degradation of KRAS(G12D), GP5d-HiBit-KRAS(G12D) cells were seeded at 25000 cells per well in 100 μL Dulbecco's Modified Eagle medium (Sigma cat. no. D6429) supplemented with 10% fetal calf serum into white bottom opaque 96 well plates (Perkin Elmer cat no. 5680). Plates were incubated at 37° C., 5% CO2 in a humidified incubator over night to allow the cells to adhere. […] Plates were further incubated at 37° C. for 18 hours. Following incubation, 100 μL per well Promega Nano-Glo HiBit lytic detection reagent mix (Promega Nano-Glo HiBit Lytic Detection System #N3050), prepared according to the manufacturer's instructions in the kit, were added. To allow for adequate cell lysis, plates were incubated on an orbital shaker for 15 min and further incubated 30 min at room temperature. Upon completion of cell lysis, luminescence was measured using an Envision plate reader using the Ultrasensitive Luminescence Protocol for 96 well plates. Luminescence levels were normalized by the values obtained with DMSO-treated samples and plotted as percent of DMSO control. DC50 values were computed using a four parametric logistic model. Dmax values represent the maximal extent of degradation observed and is stated as percent of control (% Ctrl.) treatments. DC50 and Dmax are reported in Table 64 for representative compounds of the invention.

[3] = test system: SW620 cells; assay: SW620 cell proliferation assay (colorectal cancer, G12V), 5 days; details: Homo sapiens, SW-620, 120 h
Description: SW620 Cell Proliferation Assay (Colorectal Cancer, G12V)
as §1, with “SW620” for “GP5d”, “(ATCC CCL-227)” for “(ECACC 95090715)”, “plates (Perkin Elmer cat no. 5680)” for “plates”, “2000” for “5000”

[4] = test system: NCI-H358 cells; assay: NCI-H358 CTG proliferation assay (120 h) (NSCLC, G12C); details: Homo sapiens
Description: NCI-H358 CTG Proliferation Assay (120 h) (NSCLC, G12C)
NCI-H358 cells (ATCC No. CRL-5807) are dispensed into white bottom opaque 96 well plates (Perkin Elmer cat no. 5680) at a density of 2000 cells per well in 100 μL RPMI-1640 ATCC-Formulation (Gibco #A10491)+10% FCS (fetal calf serum) (assay 1) or into black 384-well plates, flat and clear bottom (Greiner, PNr. 781091) at a density of 200 cells per well in 60 μl RPMI-1640 ATCC-Formulation (Gibco #A10491)+10% FCS (fetal calf serum) (assay 2). […] Compounds (10 mM stock in DMSO) are added at logarithmic dose series using the HP Digital Dispenser D300 (Tecan) (assay 1) or the ECHO acoustic liquid handler system (Beckman Coulter) (assay 2), normalizing for added DMSO and including DMSO controls. For the TO time point measurement, untreated cells are analyzed at the time of compound addition. Plates are incubated for 120 h, and cell viability is measured using CellTiter-Glo luminescent cell viability reagent (Promega product code G7570). Viability (stated as percent of control) is defined as relative luminescence units RLU of each well divided by the RLU of cells in DMSO controls. IC50 values are determined from viability measurements by non-linear regression using a four parameter model.

[5] = test system: AsPC-1 cells; assay: AsPC-1 CTG proliferation assay (120 h) (pancreatic cancer, G12D); details: Homo sapiens, ASPC1, AsPC-1 proliferation
Description: AsPC-1 CTG Proliferation Assay (120 h) (Pancreatic Cancer, G12D)
The CTG assay is designed to measure quantitatively the proliferation of AsPC-1 cells (ATCC […]), using the CellTiter Glow Assay Kit (Promega G7571). Cells are grown in RPMI medium (ATCC) supplemented with Fetal Calf Serum (Life Technologies, Gibco BRL, Cat. No. 10270-106). On “day 0” 2000 AsPC-1 cells are seeded in 60 μL RPMI ATCC+10% FCS+ Penstrep in a 384-well plate, flat and clear bottom (Greiner, PNr. 781091). Cells are then incubated in the plates at 37° C. in a CO2 incubator overnight. On day 1, compounds (10 mM stock in DMSO) are added with the ECHO acoustic liquid handler system (Beckman Coulter), including DMSO controls. Plates are incubated for 120 h, and cell viability is measured using CellTiter-Glo luminescent cell viability reagent (Promega product code G7570). Viability (stated as percent of control) is defined as relative luminescence units RLU of each well divided by the RLU of cells in DMSO controls. IC50 values are determined from viability measurements by non-linear regression using a four-parameter model.

[6] = test system: SK—CO-1 cells; assay: SK-CO-1 CTG proliferation assay (120 h) (CRC, G12V); details: Homo sapiens, SK-CO-1 proliferation
Description: SK—CO-1 CTG Proliferation Assay (120 h) (CRC, G12V)
(§2) SK—CO-1 cells (ATCC HTB-39) are dispensed into 384-well plates, flat and clear bottom (Greiner, PNr. 781091) at a density of 500 cells per well in 60 μL EMEM (Sigma M5650)+10% Fetal Calf Serum (HyClone, PNr.: SH30084.03) and incubated at 37° C. in a CO2 incubator overnight. The next day, compounds (10 mM stock in DMSO) are added with the ECHO acoustic liquid handler system (Beckman Coulter), including DMSO controls. Plates are incubated for 120 h, and cell viability is measured using CellTiter-Glo luminescent cell viability reagent (Promega product code G7570). Viability (stated as percent of control) is defined as relative luminescence units RLU of each well divided by the RLU of cells in DMSO controls. IC50 values are determined from viability measurements by non-linear regression using a four-parameter model.

[7] = test system: SAS cells; assay: SAS CTG proliferation assay (120 h) (HNSCC, wt amplified)
Description: SAS CTG Proliferation Assay (120 h) (HNSCC, Wt Amplified)
as §2, with “SAS” for “SK—CO-1”, “(JCRB0260)” for “(ATCC HTB-39)”, “300” for “500”, “DMEM:F12 (Gibco 31330-038)+10%” for “EMEM (Sigma M5650)+10%”

[8] = assay 1, read-out: H358 (assay 1) IC50
[9] = assay 2, read-out: H358 (assay 2) IC50

T1 sequence (P01116 1-188 isoform P01116-2 G12D): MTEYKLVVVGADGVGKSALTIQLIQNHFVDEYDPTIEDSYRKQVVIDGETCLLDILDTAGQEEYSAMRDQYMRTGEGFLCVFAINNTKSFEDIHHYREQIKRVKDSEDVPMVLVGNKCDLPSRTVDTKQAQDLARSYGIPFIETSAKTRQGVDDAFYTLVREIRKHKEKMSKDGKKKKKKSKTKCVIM

Row | IC50 [1] | DC50 [2] | Dmax 18 h [2] | IC50 [3] | IC50 [4, 8] | IC50 [4, 9] | IC50 [5] | IC50 [6] | Compound | IC50 [7]
1 | 23.4 nM | 11 nM | 89 % Ctrl | 55.9 nM | 480 nM | 180 nM |  |  | CC(C)C(C(=O)N1C[C@H](O)C[C@H]1C(=O)NCc1ccc(Br)cc1)c1cc(OCCCCN2CCCN(c3nccc(-c4noc([C@@]5(C)CCCc6sc(N)c(C#N)c65)n4)n3)[C@@H](C)C2)no1 (stereo partly shown) [I-7] | 
2 |  | 8.9 nM | 92 % Ctrl |  |  | 253 nM | 645 nM | 1210 nM | Cc1ncsc1-c1ccc(CNC(=O)[C@@H]2C[C@@H](O)CN2C(=O)C(c2cc(OCCCCN3CCCN(c4nccc(-c5cc([C@@]6(C)CCCc7sc(N)c(C#N)c76)no5)n4)[C@@H](C)C3)no2)C(C)C)cc1 (stereo partly shown) [I-6] | 17000 nM
3 | 21.7 nM | 10.6 nM | 91 % Ctrl | 51.3 nM | 160 nM | 43.8 nM |  |  | Cc1ncsc1-c1ccc(CNC(=O)[C@@H]2C[C@@H](O)CN2C(=O)C(C(C)C)n2cc(CCCCCN3CCCN(c4nccc(-c5noc([C@@]6(C)CCCc7sc(N)c(C#N)c76)n5)n4)[C@@H](C)C3)nn2)cc1 (stereo partly shown) [I-34] | 
4 | 133 nM | 101 nM | 77 % Ctrl | 265 nM | 485 nM | 435 nM |  |  | Cc1ncsc1-c1ccc(CNC(=O)[C@@H]2C[C@@H](O)CN2C(=O)[C@H](c2cc(OCCCCN3CCCN(c4nccc(-c5noc([C@@]6(C)CCCc7sc(N)c(C#N)c76)n5)n4)[C@@H](C)C3)no2)C(C)C)cc1 (single isomer, unassigned) [I-26] | 
5 | 92.4 nM | 8.6 nM | 89 % Ctrl | 83.9 nM | 439 nM | 377 nM |  |  | CC(C)C(C(=O)N1C[C@H](O)C[C@H]1C(=O)NCc1ccc(Cl)cc1)c1cc(OCCCCN2CCCN(c3nccc(-c4noc([C@@]5(C)CCCc6sc(N)c(C#N)c65)n4)n3)[C@@H](C)C2)no1 (stereo partly shown) [I-20] | 
6 | ≥ 9000 nM | 263 nM | 84 % Ctrl | 598 nM | 2930 nM |  |  |  | Cc1ncsc1-c1ccc(CNC(=O)[C@@H]2C[C@@H](O)CN2C(=O)C(c2cc(OCCN3CCCN(c4nccc(-c5noc([C@@]6(C)CCCc7sc(N)c(C#N)c76)n5)n4)[C@@H](C)C3)no2)C(C)C)cc1 (stereo partly shown) [I-2] | 
7 | 2630 nM | 523 nM | 85 % Ctrl | 803 nM | 3550 nM |  |  |  | Cc1ncsc1-c1ccc(CNC(=O)[C@@H]2C[C@@H](O)CN2C(=O)[C@@H](NC(=O)COCCCN2CCCN(c3nccc(-c4noc([C@@]5(C)CCCc6sc(N)c(C#N)c65)n4)n3)[C@@H](C)C2)C(C)(C)C)cc1 [I-48] | 
8 | 90.2 nM | 11.4 nM | 86 % Ctrl | 50.4 nM | 725 nM | 136 nM |  |  | Cc1ncsc1-c1ccc(CNC(=O)[C@@H]2C[C@@H](O)CN2C(=O)C(c2cc(OCCCCCCN3CCCN(c4nccc(-c5noc([C@@]6(C)CCCc7sc(N)c(C#N)c76)n5)n4)[C@@H](C)C3)no2)C(C)C)cc1 (stereo partly shown) [I-8] | 

Source: patent publication US20250145608A1, “KRAS DEGRADING COMPOUNDS COMPRISING ANNULATED 2-AMINO-3-CYANO THIOPHENES” (Boehringer Ingelheim Int'l GmbH Corp., priority 2021, published 2025)
